In patent publication US8410144B2, “Substituted indolo-pyridinone compounds” (ArQule, Inc., priority 2009, dated 2013):

Tests used:
DLD-1 = assay: MTS assay, DLD-1 cells; assay type: cell-based; settings: Homo sapiens, 72 hours, read-out: DLD-1, MTS cell kill % inhibition
In short: (§1)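 First, seed 3000 cells per well in low-serum (1% FBS) DMEM and culture 18 h. Next, add compounds prepared at 300× in DMSO and diluted 1:40 in DMEM; incubate 72 h. Finally, add MTS/PMS for 4 h and measure absorbance at 492 nm.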

KATO III = assay: MTS assay, KATO III cells; assay type: cell-based; settings: Homo sapiens, 72 hours, read-out: KATO III, MTS cell kill % inhibition
In short: as §1

MDA-MB-231 = assay: MTS assay, MDA-MB-231 cells; assay type: cell-based; settings: Homo sapiens, 72 hours, read-out: MDA-MB-231, MTS cell kill % inhibition
In short: as §1

NCI-H1299 = assay: MTS assay, NCI-H1299 cells; assay type: cell-based; settings: Homo sapiens, 72 hours, read-out: NCI-H1299, MTS cell kill % inhibition
In short: as §1

IGF-1R = IGF-1R (Homo sapiens, UniProt P08069); assay: IGFR1 activity assay (ELISA); assay type: biochemical; settings: read-out: IGF-1R, PCT INH (30 μM), ELISA
In short: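 IGF1R (0.33 ng/μL final) phosphorylating Pyk-2 (0.05 ng/μL final) in buffer with 12.5 μM ATP, 10 mM MgCl2, 1 h room temperature. Product captured on streptavidin plates, detected with anti-phosphotyrosine and alkaline phosphatase secondary antibody, Attophos fluorescent readout.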

IGF-1R, sequence (P08069 31-1367): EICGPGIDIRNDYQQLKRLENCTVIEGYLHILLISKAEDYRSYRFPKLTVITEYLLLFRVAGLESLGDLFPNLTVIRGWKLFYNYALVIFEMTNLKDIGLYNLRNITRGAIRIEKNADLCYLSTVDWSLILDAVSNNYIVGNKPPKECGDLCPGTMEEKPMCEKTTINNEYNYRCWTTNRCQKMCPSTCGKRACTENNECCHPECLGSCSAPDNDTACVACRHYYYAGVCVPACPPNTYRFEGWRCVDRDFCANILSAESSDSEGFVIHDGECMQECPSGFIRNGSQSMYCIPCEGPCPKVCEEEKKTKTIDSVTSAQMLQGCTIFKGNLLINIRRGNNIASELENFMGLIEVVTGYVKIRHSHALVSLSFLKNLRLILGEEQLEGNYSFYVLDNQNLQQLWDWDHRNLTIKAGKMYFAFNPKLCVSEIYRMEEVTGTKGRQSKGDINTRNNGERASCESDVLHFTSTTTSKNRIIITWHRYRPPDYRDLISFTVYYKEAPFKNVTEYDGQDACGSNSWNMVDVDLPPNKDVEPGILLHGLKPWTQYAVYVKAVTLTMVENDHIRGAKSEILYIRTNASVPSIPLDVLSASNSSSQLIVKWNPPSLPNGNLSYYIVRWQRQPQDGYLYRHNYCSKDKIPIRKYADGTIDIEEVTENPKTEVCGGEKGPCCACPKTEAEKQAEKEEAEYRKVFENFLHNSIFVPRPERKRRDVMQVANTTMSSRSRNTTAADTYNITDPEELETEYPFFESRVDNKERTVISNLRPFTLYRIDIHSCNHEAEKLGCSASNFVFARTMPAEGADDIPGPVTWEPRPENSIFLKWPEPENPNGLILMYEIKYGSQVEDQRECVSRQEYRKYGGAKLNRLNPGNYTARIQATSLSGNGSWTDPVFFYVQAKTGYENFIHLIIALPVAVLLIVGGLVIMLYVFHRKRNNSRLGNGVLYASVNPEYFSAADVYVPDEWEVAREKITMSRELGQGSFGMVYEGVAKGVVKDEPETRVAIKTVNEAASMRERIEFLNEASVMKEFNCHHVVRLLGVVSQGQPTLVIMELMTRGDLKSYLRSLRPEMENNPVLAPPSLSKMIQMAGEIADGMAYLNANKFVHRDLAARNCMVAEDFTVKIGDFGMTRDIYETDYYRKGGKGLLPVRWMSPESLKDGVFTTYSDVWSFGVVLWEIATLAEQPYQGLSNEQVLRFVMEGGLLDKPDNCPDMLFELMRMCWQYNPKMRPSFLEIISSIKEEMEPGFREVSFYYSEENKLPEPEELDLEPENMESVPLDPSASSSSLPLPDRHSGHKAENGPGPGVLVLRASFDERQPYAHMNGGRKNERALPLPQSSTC

| SMILES | inhibition at 30 µM (IGF-1R) [%] | melting point [°C] | inhibition at 10 µM (DLD-1) [%] | inhibition at 10 µM (KATO III) [%] | inhibition at 10 µM (MDA-MB-231) [%] | inhibition at 10 µM (NCI-H1299) [%] |
| --- | --- | --- | --- | --- | --- | --- |
| CCN(CC)CCCNC(=O)c1ccc2[nH]c(-c3ccc[nH]c3=O)c(-c3ccccc3)c2c1 [Compound 2, N-[3-(diethylamino)propyl]-2-(2-oxo-1,2-dihydropyridin-3-yl)-3-phenyl-1H-indole-5-carboxamide] | 80 to 100 | 190 to 198 | 50 to 79 | 80 to 100 | 50 to 79 | 50 to 79 |
| O=C(NCCCN1CCOCC1)c1ccc2[nH]c(-c3ccc[nH]c3=O)c(-c3cc4cccc5c4n3CCC5)c2c1 [Compound 8, 3-(5,6-dihydro-4H-pyrrolo[3,2,1-ij]quinolin-2-yl)-N-(3-morpholin-4-ylpropyl)-2-(2-oxo-1,2-dihydropyridin-3-yl)-1H-indole-5-carboxamide] | 50 to 79 | 181 to 189 | 80 to 100 | 80 to 100 | 80 to 100 | 80 to 100 |
| COC(=O)c1ccc2[nH]c(-c3ccc[nH]c3=O)c(-c3ccc(-c4ccccc4)cc3)c2c1 [Compound 9, methyl 3-biphenyl-4-yl-2-(2-oxo-1,2-dihydropyridin-3-yl)-1H-indole-5-carboxylate] | < 50 | > 300 | < 50 | < 50 | < 50 | < 50 |
| O=C(Nc1cccc(F)c1)c1ccc2[nH]c(-c3ccc[nH]c3=O)c(-c3ccccc3)c2c1 [Compound 13, N-(3-fluorophenyl)-2-(2-oxo-1,2-dihydropyridin-3-yl)-3-phenyl-1H-indole-5-carboxamide] | 50 to 79 | 176 to 182 | 80 to 100 | 80 to 100 | 50 to 79 | 80 to 100 |
| O=C(Nc1ccccc1F)c1ccc2[nH]c(-c3ccc[nH]c3=O)c(-c3ccccc3)c2c1 [Compound 15, N-(2-fluorophenyl)-2-(2-oxo-1,2-dihydropyridin-3-yl)-3-phenyl-1H-indole-5-carboxamide] | 80 to 100 | > 300 | 80 to 100 | 80 to 100 | 50 to 79 | 50 to 79 |
| Cc1ccccc1N(C)C(=O)c1ccc2[nH]c(-c3ccc[nH]c3=O)c(-c3ccccc3)c2c1 [Compound 16, N-methyl-N-(2-methylphenyl)-2-(2-oxo-1,2-dihydropyridin-3-yl)-3-phenyl-1H-indole-5-carboxamide] | 80 to 100 | 216 to 220 | 50 to 79 | 80 to 100 | < 50 | 50 to 79 |
| O=C(Nc1cccc(Cl)c1)c1ccc2[nH]c(-c3ccc[nH]c3=O)c(-c3ccccc3)c2c1 [Compound 22, N-(3-chlorophenyl)-2-(2-oxo-1,2-dihydropyridin-3-yl)-3-phenyl-1H-indole-5-carboxamide] | 50 to 79 | 244 to 250 | 80 to 100 | 80 to 100 | 50 to 79 | 50 to 79 |
| COc1ccc(NC(=O)c2ccc3[nH]c(-c4ccc[nH]c4=O)c(-c4ccccc4)c3c2)cc1 [Compound 29, N-(4-methoxyphenyl)-2-(2-oxo-1,2-dihydropyridin-3-yl)-3-phenyl-1H-indole-5-carboxamide] | 80 to 100 | 279 to 283 | 50 to 79 | 80 to 100 | < 50 | 80 to 100 |
| CN(Cc1cccnc1)C(=O)c1ccc2[nH]c(-c3ccc[nH]c3=O)c(-c3ccc(-c4ccccc4)cc3)c2c1 [Compound 33, 3-biphenyl-4-yl-N-methyl-2-(2-oxo-1,2-dihydropyridin-3-yl)-N-(pyridin-3-ylmethyl)-1H-indole-5-carboxamide] | < 50 | 92 to 97 | 80 to 100 | 80 to 100 | 80 to 100 | 80 to 100 |
| O=C(c1ccc2[nH]c(-c3ccc[nH]c3=O)c(-c3ccc(-c4ccccc4)cc3)c2c1)N1CCN(c2ccccc2F)CC1 [Compound 36, 3-(3-biphenyl-4-yl-5-{[4-(2-fluorophenyl)piperazin-1-yl]carbonyl) -1H-indol-2-yl)pyridin-2(1H)-one] | < 50 | 137 to 144 | < 50 | < 50 | 50 to 79 | < 50 |
| O=C(NCc1ccccn1)c1ccc2[nH]c(-c3ccc[nH]c3=O)c(-c3ccc(-c4ccccc4)cc3)c2c1 [Compound 42, 3-biphenyl-4-yl-2-(2-oxo-1,2-dihydropyridin-3-yl)-N-(pyridin-2-ylmethyl)-1H-indole-5-carboxamide] | < 50 | 123 to 127 | 80 to 100 | 80 to 100 | 80 to 100 | 80 to 100 |
| CN(CCc1ccccc1)C(=O)c1ccc2[nH]c(-c3ccc[nH]c3=O)c(-c3ccc(-c4ccccc4)cc3)c2c1 [Compound 43, 3-biphenyl-4-yl-N-methyl-2-(2-oxo-1,2-dihydropyridin-3-yl)-N-(2-phenylethyl)-1H-indole-5-carboxamide] | < 50 | 136 to 141 | 50 to 79 | 50 to 79 | < 50 | 50 to 79 |

Now from value to molecule, other results behind:

| inhibition at 30 µM (IGF-1R) [%] | melting point [°C] | SMILES | inhibition at 10 µM (DLD-1) [%] | inhibition at 10 µM (KATO III) [%] | inhibition at 10 µM (MDA-MB-231) [%] | inhibition at 10 µM (NCI-H1299) [%] |
| --- | --- | --- | --- | --- | --- | --- |
| 80 to 100 | 238 to 244 | O=C(NCCCN1CCOCC1)c1ccc2[nH]c(-c3ccc[nH]c3=O)c(-c3ccccc3)c2c1 [Compound 1, N-(3-morpholin-4-ylpropyl)-2-(2-oxo-1,2-dihydropyridin-3-yl)-3-phenyl-1H-indole-5-carboxamide] | 80 to 100 | 80 to 100 | 80 to 100 | 80 to 100 |
| < 50 | 185 to 188 | CN1CCCC1CCNC(=O)c1ccc2[nH]c(-c3ccc[nH]c3=O)c(-c3ccccc3)c2c1 (stereo not drawn) [Compound 5, N-[2-(1-methylpyrrolidin-2-yl)ethyl]-2-(2-oxo-1,2-dihydropyridin-3-yl)-3-phenyl-1H-indole-5-carboxamide] | 50 to 79 | 80 to 100 | 50 to 79 | 80 to 100 |
| < 50 | > 300 | O=C(Nc1ccccc1Cl)c1ccc2[nH]c(-c3ccc[nH]c3=O)c(-c3ccccc3)c2c1 [Compound 12, N-(2-chlorophenyl)-2-(2-oxo-1,2-dihydropyridin-3-yl)-3-phenyl-1H-indole-5-carboxamide] | 80 to 100 | 80 to 100 | 50 to 79 | 80 to 100 |
| 80 to 100 | 182 to 186 | O=C(c1ccc2[nH]c(-c3ccc[nH]c3=O)c(-c3ccccc3)c2c1)N1CCCCC1 [Compound 17, 3-[3-phenyl-5-(piperidin-1-ylcarbonyl)-1H-indol-2-yl]pyridin-2(1H)-one] | 50 to 79 | 80 to 100 | < 50 | 80 to 100 |
| 80 to 100 | 125 to 128 | CN(C)CCCN(C)C(=O)c1ccc2[nH]c(-c3ccc[nH]c3=O)c(-c3ccccc3)c2c1 [Compound 27, N-[3-(dimethylamino)propyl]-N-methyl-2-(2-oxo-1,2-dihydropyridin-3-yl)-3-phenyl-1H-indole-5-carboxamide] | 50 to 79 | 80 to 100 | 50 to 79 | 50 to 79 |
| 80 to 100 | 143 to 145 | CN(C)CCCNC(=O)c1ccc2[nH]c(-c3ccc[nH]c3=O)c(-c3ccccc3)c2c1 [Compound 30, N-[3-(dimethylamino)propyl]-2-(2-oxo-1,2-dihydropyridin-3-yl)-3-phenyl-1H-indole-5-carboxamide] | 80 to 100 | 80 to 100 | 80 to 100 | 80 to 100 |
| < 50 | 170 to 182 | O=C(c1ccc2[nH]c(-c3ccc[nH]c3=O)c(-c3ccc(-c4ccccc4)cc3)c2c1)N1CCCCC1 [Compound 38, 3-[3-biphenyl-4-yl-5-(piperidin-1-ylcarbonyl)-1H-indol-2-yl]pyridin-2(1H)-one] | 80 to 100 | 80 to 100 | 80 to 100 | 80 to 100 |
| 50 to 79 | 289 to 296 | O=C(c1ccc2[nH]c(-c3ccc[nH]c3=O)c(-c3ccc(-c4ccccc4)cc3)c2c1)N1CCN(c2cnccn2)CC1 [Compound 45, 3-{3-biphenyl-4-yl-5-[(4-pyrazin-2-ylpiperazin-1-yl)carbonyl]-1H-indol-2-yl}pyridin-2(1H)-one] | 50 to 79 | 80 to 100 | 80 to 100 | 80 to 100 |
